Test system: not given
Assay: not given
Settings: not given

melting point | SMILES
208 to 213 °C | CNc1ncc2c(-c3cccc(Cl)c3)cc(-c3ccc(CCC(=O)O)cc3)c(OC)c2n1 [Compound 55, 7-[4(2-Carboxyethyl)phenyl]-5-(3-chlorophenyl)-8-methoxy-2-(methylamino)quinazoline]
258 to 261 °C | CNc1ncc2c(-c3cccc(Cl)c3)cc(-c3cccc(CC(=O)O)c3)c(OC)c2n1 [Compound 59, 7-[3-(Carboxymethyl)phenyl]-5-(3-chlorophenyl)-8-methoxy-2-(methylamino)quinazoline]
291 to 295 °C | CNc1ncc2c(-c3cccc(Cl)c3)cc(/C=C/C(=O)O)c(OC)c2n1 [Compound 95, 7-[E-(2-carboxyethenyl)]-5-(3-chlorophenyl)-8-methoxy-2-(methylamino)quinazoline]
291 to 296 °C | CNc1ncc2c(-c3cccc(Cl)c3)cc(-c3ccc(C(=O)O)cc3)c(O)c2n1 [Compound 112, 7-(4-Carboxyphenyl)-5-(3-chlorophenyl)-8-hydroxy-2-(methylamino)quinazoline]

Target: T1, recombinant human PDE-IV (HSPDE4A) (Homo sapiens, UniProt P27815)
T1 construct: made in house; host or cells: Sf9 insect cells
Assay: Recombinant Human PDE-IV-Inhibiting Test
Type: biochemical
Settings: at the concentration of 0.1 μmol/L; substrate [3H]cAMP 1 μmol/L; read-out: enzyme-inhibitory activity
Protocol: Recombinant Human PDE-IV-Inhibiting Test
A human PDE cDNA (HSPDE4A) was isolated from HL-60 cells. An expected amino acid sequence thereof is the same as the sequence (HSPDE4A4) reported by Bolger G., et al (Mol. Cell. Biol., 1993, Vol. 13, p. 6558). The recombinant protein was expressed, using Sf9 insect cells. The PDE activity was measured according to the following two-step process, based on the method by Kincid R. L. and Manganiello V. C. (Method. Enzymol., 1988, Vol. 159, p. 457). [^3H]cAMP (final concentration: 1 μmol/L) was used as the substrate. The reaction was performed in a standard, mixture containing N,N-bis(2-hydroxyethyl)-2-aminoethanesulfonic acid (50 mmol/L, pH 7.2), magnesium chloride (1 mmol/L) and soybean trypsin inhibitor (0.1 mg/mL). The reaction was started by the addition of enzyme, and the reaction mixture was incubated at 30° C. for 10 to 30 minutes. The reaction was stopped by hydrochloric acid, and the formed 5′-AMP was completely decomposed by 5′-nucleotidase. The resulting mixture was treated with chromatography of DEAE-Sephadex A-25, and the eluted [^3H]adenosine was counted with a scintillation counter. The test compounds were dissolved in DMSO, and added to the system (concentration 1.7%).

T1 sequence (P27815 whole entry): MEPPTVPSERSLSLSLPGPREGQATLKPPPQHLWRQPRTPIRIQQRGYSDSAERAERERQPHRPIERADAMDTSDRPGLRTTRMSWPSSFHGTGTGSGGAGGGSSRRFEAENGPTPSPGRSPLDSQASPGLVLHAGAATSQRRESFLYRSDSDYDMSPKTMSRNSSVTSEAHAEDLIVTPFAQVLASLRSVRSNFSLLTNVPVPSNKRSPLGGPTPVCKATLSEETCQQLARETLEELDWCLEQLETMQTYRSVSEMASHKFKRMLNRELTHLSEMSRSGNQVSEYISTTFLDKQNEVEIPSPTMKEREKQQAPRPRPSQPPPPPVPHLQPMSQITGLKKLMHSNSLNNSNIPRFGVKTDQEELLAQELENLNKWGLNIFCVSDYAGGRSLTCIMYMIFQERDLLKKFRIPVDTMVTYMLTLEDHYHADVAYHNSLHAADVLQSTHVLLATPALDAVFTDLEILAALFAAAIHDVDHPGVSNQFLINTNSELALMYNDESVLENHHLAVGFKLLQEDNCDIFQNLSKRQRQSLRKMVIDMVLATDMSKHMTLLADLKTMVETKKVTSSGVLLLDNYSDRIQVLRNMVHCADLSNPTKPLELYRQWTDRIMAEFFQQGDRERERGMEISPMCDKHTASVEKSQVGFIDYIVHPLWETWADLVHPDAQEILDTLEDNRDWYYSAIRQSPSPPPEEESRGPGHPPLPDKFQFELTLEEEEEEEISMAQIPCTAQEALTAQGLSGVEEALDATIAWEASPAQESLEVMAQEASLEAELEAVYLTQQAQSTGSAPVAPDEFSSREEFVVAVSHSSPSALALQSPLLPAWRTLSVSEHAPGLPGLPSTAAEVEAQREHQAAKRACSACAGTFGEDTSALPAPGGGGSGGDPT

inhibition at 0.1 µM | SMILES
≥ 50% | CNc1ncc2c(-c3cncc(Cl)c3)cc(-c3ccc(C(=O)O)cc3)c(OC)c2n1 [Compound 20, 7-(4-Carboxyphenyl)-5-(5-chloropyridine-3-yl)-8-methoxy-2-(methylamino)quinazoline]
≥ 50% | CNc1ncc2c(-c3cccc(Cl)c3)cc(CCC(=O)O)c(OC)c2n1 [Compound 35, 7-(2-Carboxyethyl)-5-(3-chlorophenyl)-8-methoxy-2-(methylamino)quinazoline]
≥ 50% | COc1c(-c2cccc(C(=O)O)c2)cc(-c2cccc(Cl)c2)c2cnc(N(C)C)nc12 [Compound 37, 7-(3-Carboxyphenyl)-5-(3-chlorophenyl)-2-dimethylamino-8-methoxyquinazoline]

Continued, molecule first:

SMILES | inhibition at 0.1 µM
COc1c(-c2ccc(C(=O)O)cc2)cc(-c2cccc([N+](=O)[O-])c2)c2cnc(N)nc12 [Compound 12, 2-Amino-7-(4-carboxyphenyl)-8-methoxy-5-(3-nitrophenyl)quinazoline] | ≥ 50%
COc1c(-c2ccc(C(=O)O)cc2)cc(-c2cccc(Cl)c2)c2cnc(N)nc12 [Compound 13, 2-Amino-7-(4-carboxyphenyl)-5-(3-chlorophenyl)-8-methoxyquinazoline] | ≥ 50%
COc1c(-c2ccc(C(=O)O)cc2)cc(-c2cccc([N+](=O)[O-])c2)c2cnc(N(C)C)nc12 [Compound 14, 7-(4-Carboxyphenyl)-2-dimethylamino-8-methoxy-5-(3-nitrophenyl)quinazoline] | ≥ 50%
COc1c(-c2ccc(C(=O)O)cc2)cc(-c2cccc(Cl)c2)c2cnc(N(C)C)nc12 [Compound 15, 7-(4-Carboxyphenyl)-5-(3-chlorophenyl)-2-dimethylamino-8-methoxyquinazoline] | ≥ 50%
CNc1ncc2c(-c3cccc(Cl)c3)cc(-c3ccc(C(=O)O)cc3)c(OC)c2n1 [Compound 18, 7-(4-Carboxyphenyl)-5-(3-chlorophenyl)-8-methoxy-2-(methylamino)quinazoline] | ≥ 50%
CNc1ncc2c(-c3cccc(C#N)c3)cc(-c3ccc(C(=O)O)cc3)c(OC)c2n1 [Compound 19, 7-(4-Carboxyphenyl)-5-(3-cyanophenyl)-8-methoxy-2-(methylamino)quinazoline] | ≥ 50%
COc1c(C2=CCNCC2)cc(-c2cccc(Cl)c2)c2cnc(N(C)C)nc12 [Compound 43, 5-(3-Chlorophenyl)-2-dimethylamino-8-methoxy-7-(1,2,5,6-tetrahydropyridine-4-yl)quinazoline] | ≥ 50%
